US7462641B2, “(2S,4S)-4-fluoro-1-[4-fluoro-beta-(4-fluorophenyl)-L-phenylalanyl]-2-pyrrolidinecarbonitrile p-toluenesulfonic acid salt and anhydrous crystalline forms thereof” (SmithKline Beecham Corporation, priority 2003, dated 2008)
Structures can show the parent of a compound that is named as a salt.

Tests used:
[1] = Moisture sorption testing (gas flow microbalance, VTI SGA-100); assay type: physicochemical; settings: for hygroscopicity: 25° C.
Method: The sample was equilibrated at 25° C. and 30% relative humidity and the relative humidity increased stepwise (adsorption) to 40, 50, 60, 70, 80, 90%—each relative humidity step was held until the sample equilibrated at that condition. Equilibrium was defined as a weight change of less than 0.015% in 5 minutes. The relative humidity was then decreased step wise (desorption) to 90, 80, 70, 60, 50, 40, 30, 20, 10, and 5%—each step held until equilibrium was reached. The equilibrium condition was the same as in the sorption phase. The % w/w increase or decrease in moisture content of the sample is reported for each equilibrated RH condition.
The sample was dried at 60C under a dry nitrogen stream until the rate of weight loss was less than 0.015% in 5 minutes. After drying the sample was equilibrated at 25C and the relative humidity increased stepwise (adsorption) to 5, 20, 45, 75, and 95%—each relative humidity step was held until the sample equilibrated at that condition or a 180 minute time limit was reached. Equilibrium was defined as a weight change of less than 0.015% in 5 minutes. The relative humidity was then decreased step wise (desorption) to 75, 45, and 20%—each step held until equilibrium was reached. The equilibrium condition was the same as in the sorption phase. The % w/w increase or decrease in moisture content of the sample is reported for each equilibrated RH condition.

DPP IV = DPP IV (Homo sapiens, UniProt P27487); settings: as noted in WO 03/02531; cited from earlier work
DPP IV, sequence (P27487 whole entry, species assumed): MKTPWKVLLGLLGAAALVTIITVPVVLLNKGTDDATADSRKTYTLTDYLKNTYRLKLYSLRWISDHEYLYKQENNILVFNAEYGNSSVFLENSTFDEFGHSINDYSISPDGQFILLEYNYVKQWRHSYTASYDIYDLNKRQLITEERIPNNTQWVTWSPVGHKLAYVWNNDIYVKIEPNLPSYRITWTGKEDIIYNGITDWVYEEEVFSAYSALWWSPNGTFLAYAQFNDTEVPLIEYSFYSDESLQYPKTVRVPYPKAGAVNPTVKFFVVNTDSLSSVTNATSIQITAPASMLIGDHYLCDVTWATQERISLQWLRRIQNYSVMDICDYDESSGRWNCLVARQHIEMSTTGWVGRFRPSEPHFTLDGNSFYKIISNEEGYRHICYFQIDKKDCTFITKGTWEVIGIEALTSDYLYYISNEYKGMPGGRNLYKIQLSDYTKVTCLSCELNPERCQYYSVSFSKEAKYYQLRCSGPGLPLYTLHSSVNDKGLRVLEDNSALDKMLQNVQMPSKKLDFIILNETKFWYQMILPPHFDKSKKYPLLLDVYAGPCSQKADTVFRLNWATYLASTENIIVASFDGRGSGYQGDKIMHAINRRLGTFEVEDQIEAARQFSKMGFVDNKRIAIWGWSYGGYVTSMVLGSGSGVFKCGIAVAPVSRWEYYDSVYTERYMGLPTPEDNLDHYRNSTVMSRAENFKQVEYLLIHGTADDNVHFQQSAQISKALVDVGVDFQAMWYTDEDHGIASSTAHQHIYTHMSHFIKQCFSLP

[2] = Stability testing in 40 C/75% RH oven; assay type: physicochemical; settings: after two (2) weeks in an 40 C/75% RH oven

N#C[C@@H]1C[C@H](F)CN1C(=O)[C@@H](N)C(c1ccc(F)cc1)c1ccc(F)cc1 [HCl salt, (2S,4S)-1-[(2S)-2-Amino-3,3-bis(4-fluorophenyl)propanoyl]-4-fluoropyrrolidine-2-carbonitrile hydrochloride, reference compound]
hygroscopicity ([1]; hydrochloride): hygroscopic
water adsorbed ([1]; 95% relative humidity at 25° C.): > 10%
inhibition activity of DPP IV (DPP IV): demonstrates inhibition activity of DPP IV

N#C[C@@H]1C[C@H](F)CN1C(=O)[C@@H](N)C(c1ccc(F)cc1)c1ccc(F)cc1 [anhydrate form 1, (2S,4S)-4-fluoro-1-[4-fluoro-β-(4-fluorophenyl)-L-phenylalanyl]-2-pyrrolidinecarbonitrile p-toluenesulfonic acid salt]
hygroscopicity [1]: not hygroscopic
water adsorbed ([1]; relative humidity between 0% and 95% at 25C): less than 1 % w/w
water adsorbed ([1]; relative humidity between 5% to 90% at 25° C.): very little water
desorption of adsorbed water ([1]; when the relative humidity is decreased): readily desorbs
stability (purity data) [2]: beneficial properties with regard to stability
